Entries after “also recorded” stand apart in the source; their conditions may differ. One block for each molecule: values may come before it.
How the values were obtained:
RBL-2H3 cells [1] = assay: Calcium ionophore A23187-induced RBL-2H3 degranulation (β-hexosaminidase release); type: cell-based, rat; conditions: for Effect on A23187 (calcium ionophore)-induced degranulation (in words): naphthazarin 0.1 µM, plumbagin 1 µM, diospyrin 10 µM, others at maximal tested concentrations
Description: (§1) RBL-2H3 cells were seeded at 3.0×10^5 cells/mL in 24-wells plate (1 mL/well), and assayed after 24h at near-confluent stage (∼90%). Two different degranulation stimuli were used: calcium ionophore A23187 500 ng/mL (1 µM) and an immunologic stimulus (100 ng/mL IgE anti-DNP followed by 100 ng/mL DNP-BSA) that we refer to as IgE/antigen (Fig. 2). Both stimuli induced degranulation, which was quantified by β-hexosaminidase and histamine release. With IgE/antigen, β-hexosaminidase release (p-nitrophenolate absorbance) increased by 65.4±6.8% above basal (n = 16; P<0.001), whereas histamine increased from the basal value of 0.156±0.151 µM towards 0.521±0.186 µM (n = 10; P<0.05). With A23187, β-hexosaminidase release increased by 187±18.9% above basal (n = 12; P<0.001), whereas histamine increased towards 2.43±0.330 µM (n = 12; P<0.001). Thus, the ability of naphthoquinones to reduce β-hexosaminidase release was quantified for both stimuli, whereas effects upon histamine were only quantified with the A23187 stimulus, given the low histamine release and poor signal to noise achieved with IgE/antigen.
(§2) Before treatment with A23187, cells were incubated with individual naphthoquinones during 15 min, at 37°C. After that, A23187 1 µM was added and cells incubated for 30 min, at 37°C (Fig. 2B). Compounds were freshly diluted prior to cell exposure using EBSS supplemented with 0.1% BSA [21]. β-hexosaminidase and histamine release was quantified in supernatants, whereas the MTT cell viability assay was performed on adherent cells.
The release of β-hexosaminidase from stimulated-RBL-2H3 cells was measured as previously described. In a 96-wells plate, 50 µl of substrate solution [p-nitrophenyl N-acetyl-D-glucosamine 1.3 mg/ml in citrate buffer (pH 4.5)] were added to 30 µl of supernatant. The plate was incubated at 37°C, during 1 h. The reaction was stopped by the addition of 80 µl of NaOH 0.5 M and the reaction product, p-nitrophenolate, was measured spectrophotometrically at 405 nm, in a microplate reader (Multiskan ASCENT Thermo®).

RBL-2H3 cells [2] = assay: IgE/antigen-induced RBL-2H3 basophils' degranulation (β-hexosaminidase release); type: cell-based, rat; conditions: for Effect on IgE/antigen-induced degranulation (in words): naphthazarin 0.1 µM, plumbagin 1 µM
Description: RBL-2H3 cells were seeded at 3.0×10^5 cells/mL in 24-wells plate (1 mL/well), and assayed after 24h at near-confluent stage (∼90%). Two different degranulation stimuli were used: calcium ionophore A23187 500 ng/mL (1 µM) and an immunologic stimulus (100 ng/mL IgE anti-DNP followed by 100 ng/mL DNP-BSA) that we refer to as IgE/antigen (Fig. 2). […] Thus, the ability of naphthoquinones to reduce β-hexosaminidase release was quantified for both stimuli, whereas effects upon histamine were only quantified with the A23187 stimulus, given the low histamine release and poor signal to noise achieved with IgE/antigen.
When the IgE/antigen was used as stimulus, cells were incubated during 16 h with 100 ng/ml IgE anti-DNP and with individual naphthoquinones diluted in culture medium. After washing twice with Dulbecco's phosphate buffered saline (DPBS), cells were treated for 1 h, at 37°C, with 100 ng/ml DNP-BSA and with individual naphthoquinones diluted in EBSS supplemented with 0.1% BSA (Fig. 2A). After treatments, supernatants were collected in order to quantify released β-hexosaminidase and released histamine, while cell viability assay was performed on adherent cells.
The release of β-hexosaminidase from stimulated-RBL-2H3 cells was measured as previously described. In a 96-wells plate, 50 µl of substrate solution [p-nitrophenyl N-acetyl-D-glucosamine 1.3 mg/ml in citrate buffer (pH 4.5)] were added to 30 µl of supernatant. The plate was incubated at 37°C, during 1 h.

[3] = test system: leukotriene C4 production; assay: Leukotriene C4 production in IgE/antigen-stimulated RBL-2H3 cells (EIA); type: cell-based, rat
soybean lipoxidase = target: T1, soybean lipoxidase (Glycine max, UniProt P08170); assay: Soybean lipoxidase inhibition, cell-free; type: biochemical, Glicine max (L.) Merr.; conditions: mean±SEM; for IC50: cell-free assay
T1 construct: purchased Sigma-Aldrich (St. Louis, MO, USA) type V-S; host or cells: soybean (plant preparation)
T1 sequence (P08170 1-839): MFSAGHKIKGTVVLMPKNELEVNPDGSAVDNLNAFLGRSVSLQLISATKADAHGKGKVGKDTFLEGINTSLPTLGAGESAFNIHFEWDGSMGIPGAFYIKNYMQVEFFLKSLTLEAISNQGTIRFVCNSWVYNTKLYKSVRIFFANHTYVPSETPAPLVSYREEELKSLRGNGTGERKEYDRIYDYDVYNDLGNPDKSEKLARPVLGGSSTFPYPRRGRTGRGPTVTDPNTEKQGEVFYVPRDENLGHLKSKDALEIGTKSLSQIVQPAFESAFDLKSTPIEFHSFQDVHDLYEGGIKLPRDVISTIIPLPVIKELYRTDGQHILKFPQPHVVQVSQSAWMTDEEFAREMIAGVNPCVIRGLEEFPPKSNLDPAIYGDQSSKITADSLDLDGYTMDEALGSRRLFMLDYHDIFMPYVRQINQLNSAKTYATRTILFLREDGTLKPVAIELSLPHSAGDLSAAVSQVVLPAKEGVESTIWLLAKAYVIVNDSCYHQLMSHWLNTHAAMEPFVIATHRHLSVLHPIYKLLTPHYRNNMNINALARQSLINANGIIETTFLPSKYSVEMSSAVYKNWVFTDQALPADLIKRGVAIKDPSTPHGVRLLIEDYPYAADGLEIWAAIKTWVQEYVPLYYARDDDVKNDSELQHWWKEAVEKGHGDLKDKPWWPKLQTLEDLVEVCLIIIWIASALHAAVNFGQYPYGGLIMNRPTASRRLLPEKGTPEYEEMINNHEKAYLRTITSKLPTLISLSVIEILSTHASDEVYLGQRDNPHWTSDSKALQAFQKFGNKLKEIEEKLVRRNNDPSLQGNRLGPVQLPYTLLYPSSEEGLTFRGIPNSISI
Description: Lipoxidase catalyses the oxidation of linoleic acid to the conjugated diene, 13-hydroperoxy linoleic acid, which was measured spectrophotometrically at 234 nm on a UV/visible spectrophotometer (UNICAM Helios α). The blank was measured in a reaction mixture with 20 µl of individual naphthoquinones solution, 1 ml of phosphate buffer (pH 9) and 20 µl of soybean lipoxidase 500 U. After 5 min pre-incubation at room temperature, the reaction was started by addition of 50 µl of substrate (linoleic acid) at 2 mM in ethanol. The reaction time was 3 min.

[4] = test system: hyaluronidase from bovine tests (type IV-S; EC 3.2.1.35); assay: Hyaluronidase inhibition, cell-free (Morgan-Elson); type: biochemical; conditions: for Hyaluronidase inhibition (%): maximal inhibition, mean±SEM
Description: The reaction product, N-acetyl-sugar, was quantified according Morgan-Elson colour reaction with minor modifications. The Morgan-Elson reaction was started by addition of 25 µl disodium tetraborate 0.8 M and subsequent heating in a boiling water bath during 3 min. After cooling, 750 µl p-dimethylaminobenzaldehyde (DMAB) was added and the reaction mixture was incubated at 37°C for 20 min. […] The measurement was made spectrophotometrically, at 560 nm, in a microplate reader (Multiskan ASCENT Thermo®), [24]. Sodium cromoglycate was used as a positive control for inhibition.

RBL-2H3 cells [5] = assay: Histamine release in A23187-stimulated RBL-2H3 cells; type: cell-based, rat; conditions: 10 µM; A23187 1 µM stimulus
Description: as §1, with “With A23187, β-hexosaminidase release increased by 187±18.9% above basal (n = 12; P<0.001), whereas histamine increased towards 2.43±0.330 µM (n = 12; P<0.001).” left out
as §2, with “After that, A23187 1 µM was added and cells incubated for 30 min, at 37°C (Fig. 2B).” left out, “cells. […]” for “cells.”

leukotriene production = test system: leukotriene production; parameters: method as in PMID 20460770; conditions: by inhibiting 5-lipoxygenase translocation to the nuclear membrane; cited from earlier work
[6] = test system: prostaglandin H2 (PGH2) synthase; parameters: method as in PMID 2495300; conditions: via ROS production; read-out: IC50 for inhibition of prostaglandin H2 (PGH2) synthase; cited from earlier work
RBL-2H3 cells [7] = type: cell-based; conditions: rat
Description: Cell viability was assessed by the cellular dehydrogenases' dependent reduction of MTT to formazan, which was quantified by the measurement of optical density at 550 nm using a microplate reader (Multiskan ASCENT Thermo®), as described before.

[8] = test system: peripheral blood mononuclear cells (PBMC); parameters: method as in PMID 21134493; conditions: 5 µM; phytohemagglutinin-stimulated PBMC; cited from earlier work
[9] = Rattus norvegicus, RBL-2H3, maximal inhibition, mean±SEM, read-out: Degranulation inhibition (%) A23187 (decrease of β-hexosaminidase release)
[10] = Rattus norvegicus, RBL-2H3, maximal inhibition, mean±SEM, read-out: Degranulation inhibition (%) IgE/antigen (decrease of β-hexosaminidase release)

SMILES: Cc1cc(O)c2c(c1)C(=O)C(c1c(C)cc3c(c1O)C(=O)C=CC3=O)=CC2=O [Diospyrin, diospyrin]
inhibition at 10 µM (RBL-2H3 cells [1]; [9]): 56.8 ± 14.6%
Effect on A23187 (calcium ionophore)-induced degranulation (in words) (RBL-2H3 cells [1]): reduced degranulation
inhibition at 1 µM (RBL-2H3 cells [2]; [10]): < 15%
Effect on leukotriene (LT) C4 levels evoked by IgE/antigen (in words) ([3]; 1 µM): unaffected; also recorded: unable to reduce leukotrien C4
inhibition at 36.7 µM (soybean lipoxidase; 36.7 µM, maximal inhibition): 65.6 ± 6.24%
IC50 (soybean lipoxidase): 28.9 ± 2.53 µM
Hyaluronidase inhibition (%) ([4]; 20 µM): < 15 (20 µM) %
Decrease of histamine release (RBL-2H3 cells [5]): 51.4±12.8%

inhibition at 183.5 µM (soybean lipoxidase; maximal inhibition): 96.5 ± 0.92%
IC50 (soybean lipoxidase): 83.8 ± 9.33 µM
SMILES: Cc1cc(O)c2c(c1)C(=O)C(c1c(C)cc3c(c1O)C(=O)C1OC1C3=O)=CC2=O (centres unmarked) [Diosquinone, diosquinone]
inhibition at 1 µM (RBL-2H3 cells [1]; [9]): < 15%
inhibition at 1 µM (RBL-2H3 cells [2]; [10]): 18.4 ± 8.07%
Effect on leukotriene (LT) C4 levels evoked by IgE/antigen (in words) ([3]; 1 µM): unaffected
Hyaluronidase inhibition (%) ([4]; 100 µM): < 15 (100 µM) %

SMILES: O=C1C=CC(=O)c2c(O)cccc21 [Juglone, juglone]
inhibition at 10 µM (RBL-2H3 cells [1]; [9]): < 15%
inhibition at 10 µM (RBL-2H3 cells [2]; Rattus norvegicus, RBL-2H3, 10 µM, maximal inhibition, mean±SEM, read-out: Degranulation inhibition (%) IgE/antigen (decrease of β-hexosaminidase release)): 39.2 ± 13.3%
inhibition at 183.5 µM (soybean lipoxidase; maximal inhibition): 53.1 ± 13.8%
Hyaluronidase inhibition (%) ([4]; 100 µM): < 15 (100 µM) %

IC50 ([3]; Rattus norvegicus, RBL-2H3, IgE/antigen evoked release, read-out: IC50 for decrease of LTC4 levels): 0.34 ± 0.018 µM
inhibition at 183.5 µM (soybean lipoxidase; maximal inhibition): 83.4 ± 6.8%
IC50 (soybean lipoxidase): 128 ± 9.38 µM
SMILES: CC1=CC(=O)c2ccccc2C1=O [Menadione, menadione]
inhibition at 5 µM (RBL-2H3 cells [1]; Rattus norvegicus, RBL-2H3, 5 µM, maximal inhibition, mean±SEM, read-out: Degranulation inhibition (%) A23187 (decrease of β-hexosaminidase release)): < 15%
inhibition at 5 µM (RBL-2H3 cells [2]; Rattus norvegicus, RBL-2H3, 5 µM, maximal inhibition, mean±SEM, read-out: Degranulation inhibition (%) IgE/antigen (decrease of β-hexosaminidase release)): < 15%
Concentrations reported to reduce leukotriene production (leukotriene production): 50 to 200 µM
Effect on leukotriene (LT) C4 levels evoked by IgE/antigen (in words) ([3]; 5 nM (lowest concentration tested)): strongly decreased LTC4 levels
Effect on leukotriene (LT) C4 levels evoked by IgE/antigen (in words) ([3]; 5 µM): full inhibition
Effect on leukotriene (LT) C4 levels evoked by IgE/antigen (in words) ([3]; 5 µM, listed as menadione): completely abrogated
Hyaluronidase inhibition (%) ([4]; 100 µM): 23.8±6.06 (100 µM) %
IC50 [6]: 5 µM

SMILES: O=C1C=CC(=O)c2c(O)ccc(O)c21 [Naphthazarin, naphthazarin]
inhibition at 0.1 µM (RBL-2H3 cells [1]; Rattus norvegicus, RBL-2H3, 0.1 µM, maximal inhibition, mean±SEM, read-out: Degranulation inhibition (%) A23187 (decrease of β-hexosaminidase release)): < 15%
Effect on A23187 (calcium ionophore)-induced degranulation (in words) (RBL-2H3 cells [1]): failed to reduce ionophore-induced degranulation
inhibition at 0.1 µM (RBL-2H3 cells [2]; Rattus norvegicus, RBL-2H3, 0.1 µM, maximal inhibition, mean±SEM, read-out: Degranulation inhibition (%) IgE/antigen (decrease of β-hexosaminidase release)): 30.8 ± 3.82%
Effect on IgE/antigen-induced degranulation (in words) (RBL-2H3 cells [2]): decreased IgE/antigen-induced degranulation
inhibition at 183.5 µM (soybean lipoxidase; maximal inhibition): 54.4 ± 9.33%
IC50 (soybean lipoxidase): 142 ± 27.1 µM
Hyaluronidase inhibition (%) ([4]; 100 µM): 16.9±2.45 (100 µM) %

SMILES: CC1=CC(=O)c2c(O)cccc2C1=O [Plumbagin, plumbagin]
inhibition at 1 µM (RBL-2H3 cells [1]; [9]): < 15%
Effect on A23187 (calcium ionophore)-induced degranulation (in words) (RBL-2H3 cells [1]): did not prevent degranulation
inhibition at 1 µM (RBL-2H3 cells [2]; [10]): < 15%
Effect on IgE/antigen-induced degranulation (in words) (RBL-2H3 cells [2]): did not prevent degranulation
Maximum non-toxic concentration (RBL-2H3 cells [7]): 1 µM
inhibition at 183.5 µM (soybean lipoxidase; maximal inhibition): 49.8 ± 5.23%
IC50 (soybean lipoxidase): > 184 µM
Hyaluronidase inhibition (%) ([4]; 100 µM): < 15 (100 µM) %
Effect on cytokines production (in words) [8]: inhibited cytokines production

SMILES: O=c1c(O)c(-c2ccc(O)c(O)c2)oc2cc(O)cc(O)c12 [Quercetin, reference compound]
Concentration required to reduce β-hexosaminidase release (RBL-2H3 cells [1]; A23187 assay, 10-fold higher than in IgE/antigen assay): 100 µM

SMILES: O=C(O)c1cc(=O)c2c(OCC(O)COc3cccc4oc(C(=O)O)cc(=O)c34)cccc2o1 [sodium cromoglycate, Sodium cromoglycate, reference compound]
Concentration required for complete hyaluronidase inhibition ([4]; positive control): 10 mM

Source: paper PMC3938571, “Modulation of Basophils' Degranulation and Allergy-Related Enzymes by Monomeric and Dimeric Naphthoquinones” (PLoS ONE, 2014)
